Like-named read-outs stand apart in the source and are kept apart here. A value given as a limit tells only on which side of the number the result lay.

Among the data in US11046709B2, “Fused 1,4-diazepines as BET bromodomain inhibitors” (THE REGENTS OF THE UNIVERSITY OF MICHIGAN, priority 2017, dated 2021) are IC50 and concentration values, retold here.

The test system of data set [1] is MDA-MB-231. The data set is described as follows: Cell growth inhibition, 4-day proliferation assay, MDA-MB-231. It is filed as cell-based. Conditions: Homo sapiens. A digest of the protocol: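 WST-8 colorimetric read-out (absorbance 450 nm after 1-2 h) after 4-day compound exposure of 3,000-10,000 cells/well at 37 °C; IC50 from variable-slope sigmoid fit of DMSO-normalized signal.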

Data set [2] has as its system RS4;11. The data set is described as follows: Cell growth inhibition, 4-day proliferation assay, RS4;11. The data set is classed as cell-based. Conditions: Homo sapiens, RS4-11, 96 h, read-out: Cell IC50 (nM) RS4;11. On the procedure: The effect of representative Compounds of the Disclosure on cell viability was determined in a 4-day proliferation assay. Cells were maintained in the appropriate culture medium with 100/0 FBS at 37° C. and an atmosphere of 5% CO2. All the cell lines were used within three months of thawing fresh vials.
In general, cells were seeded in 96-well flat bottom (Corning COSTAR, Corning, N.Y., cat #3595) or white opaque cell culture plates (BD Falcon, cat #353296) at a density of 3,000-10,000 cells/well in 75 μl of culture medium. Compounds were serially diluted in the appropriate medium, and 75 μl of the diluted compounds were added to the appropriate wells of the cell plate. After the addition of compounds, the cells were incubated at 37° C. in an atmosphere of 5% CO2 for 4 days. Cell viability was determined using the CellTiter-Glo® Luminescent Cell Viability Assay Kit (Promega, Madison, Wis.) for leukemia cells and WST (2-(2-methoxy-4-nitrophenyl)-3-(4-nitrophenyl)-5-(2,4-disulfophenyl)-2H-tetrazolium, monosodium salt) Cell Counting-8 Kit (Dojindo Molecular Technologies, Inc., Rockville, Md.) for adherent cells according to the manufacturers' instructions.
For WST assay (adherent cells), WST-8 reagent was added to each well at a final concentration of 10% (v/v), and then the plates were incubated at 37° C. for 1-2 hours for color development. The absorbance was measured at 450 nm using a SPECTRAmax PLUS plate reader (Molecular Devices, Sunnyvale, Calif.). The readings were normalized to the DMSO-treated cells and the half maximal inhibitory concentration (IC50) was calculated by nonlinear regression (four parameters sigmoid fitted with variable slope, least squares fit, and no constraint) analysis using the GraphPad Prism 5 software (GraphPad Software, La Jolla, Calif.).
For CellTiter-Glo assay (suspension cells), 100 μl of CellTiter-Glo® Reagent was added to each well, and then the plates were incubated at room temperature for 10-20 minutes. The luminescent signal was measured using a Tecan Infinite M1000 multimode microplate reader (Tecan, Morrisville, N.C.). The readings were normalized to the DMSO-treated cells and the IC50 was calculated by nonlinear regression (four parameters sigmoid fitted with variable slope, least squares fit, and no constraint) analysis using the GraphPad Prism 5 software. See US 2014/0256706.
For a number of representative compounds in Table 5, their IC50 values in cell growth inhibition activity in the RS4;11 and MOLM-13 human leukemia cell lines and the MDA-MB-231 breast cancer cell line were evaluated using the WST-8 assay described in EXAMPLE 7, with the data shown in Table 7.

Data set [3] addresses T1, recombinant BRD4 BD2 (Homo sapiens, UniProt O60885).
T1 construct: for recombinant BRD4 BD1 and BRD4 BD2 proteins
Kind of data set: Competitive fluorescence-polarization (FP) binding assay, BRD4 BD2.

The test system of data set [4] is MOLM-13. Kind of data set: Cell growth inhibition, 4-day proliferation assay, MOLM-13. Particulars: Homo sapiens. It is filed as cell-based.
For data set [5], the target named is T2, recombinant BRD4 BD1 (Homo sapiens, UniProt O60885).
T2 construct: for recombinant BRD4 BD1 and BRD4 BD2 proteins
The data set is described as follows: Competitive fluorescence-polarization (FP) binding assay, BRD4 BD1.

A short description of data set [6]: Plasma exposure after oral gavage in mice, LC-MS/MS. Particulars: mouse, plasma, mice, oral gavage 25 mg/kg. It is filed as in vivo. As to the method: For a number of representative compounds in Table 5, their plasma exposures with oral administration in mice via oral gavage were determined by LC-MS/MS, with the data shown in Table 9.

A word on the IC50: it is the midpoint of a concentration-inhibition curve. On to `Cc1c(C#Cc2ccc3[nH]ncc3c2)sc2c1C(c1ccc(Cl)cc1)=NCc1nnc(C)n1-2` [compound 41, 2-((1H-indazol-5-yl)ethynyl)-4-(4-chlorophenyl)-3,9-dimethyl-6H-thieno[3,2-f][1,2,4]triazolo[4,3-a][1,4]diazepine], for which the concentration for half-maximal inhibition (IC50) is 680 nM in data set [1] (MDA-MB-231, 96 h, read-out: Cell IC50 (nM) MDA-MB-231) and 278 nM in data set [2].
With `Cc1c(C#Cc2cnn(C)c2)sc2c1C(c1ccc(Cl)cc1)=NCc1nnc(C)n1-2` [compound 23, 4-(4-chlorophenyl)-3,9-dimethyl-2-((1-methyl-1H-pyrazol-4-yl)ethynyl)-6H-thieno[3,2-f][1,2,4]triazolo[4,3-a][1,4]diazepine], the IC50 is 63.1 nM in data set [3]; above 100 nM in data set [4] (MOLM-13, 96 h, read-out: Cell IC50 (nM) MOLM13); above 100 nM in data set [2]; 14.3 nM in data set [5].
As for `Cc1nnc(C[C@@H]2N=C(c3ccc(Cl)cc3)c3c(sc(C#CC4CCNCC4)c3C)-n3c(C)nnc32)o1` [Compound 174, (S)-2-((4-(4-chlorophenyl)-3,9-dimethyl-2-(piperidin-4-ylethynyl)-6H-thieno[3,2-f][1,2,4]triazolo[4,3-a][1,4]diazepin-6-yl)methyl)-5-methyl-1,3,4-oxadiazole], the IC50 worked out at 46 nM in data set [3] (competitive FP, Table 6, read-out: IC50 as determinined in FP assays BRD4 BD2); 9.43 nM in data set [1] (MDA-MB-231, WST-8 assay, Table 7, read-out: Cell growth inhibition (IC50 (nM)) MDA-MB-231); 3.1 nM in data set [4] (MOLM-13, WST-8 assay, Table 7, read-out: Cell growth inhibition (IC50 (nM)) MOLM-13); 49.9 nM in data set [5] (competitive FP, Table 6, read-out: IC50 as determinined in FP assays BRD4 BD1). In addition, the concentration at 1 h in data set [6] (1 h, read-out: Plasma concentration (ng/mL) 1 h) worked out at 56 ng/mL. Also, in data set [6] (3 h, read-out: Plasma concentration (ng/mL) 3 h), the concentration at 3 h amounted to 12 ng/mL. Further, the concentration at 6 h in data set [6] (6 h, read-out: Plasma concentration (ng/mL) 6 h) is 3 ng/mL.
